Laboratory results published in patent publication US20120251495A1, “PTERIN BASED THERAPIES FOR INFLAMMATORY CONDITIONS” (priority 2008, published 2012).

Experiments:
[1] = system: MDA-MB-231 human breast tumor xenographs; assay: Antitumor efficacy in nude mice with MDA-MB-231 xenographs, 2nd experiment; format: in vivo, athymic nude mice; settings: (1:2) 25, DCP 23 and 69, calcium chloride dihydrate 4.2 mg/kg/day
Protocol: In the 2nd experiment, twenty-nine athymic nude, also purchased from Harlan Sprague Dawley, Inc. (Indianapolis, Ind.), were each injected subcutaneously with 10×10^6 MDA-MB-231 cancer cells into the right flank. When tumors reached 3-5 mm in size, the mice were divided into five treatment groups of five each and a control group of four mice. […] All the other mice in the 2nd experiment persisted ≧43 days without complications. Experimental groups were treated by oral gavage once daily with the indicated test suspensions or solutions.

[2] = system: plasma cytokines; assay: Plasma cytokine levels (multiplex and single ELISA kits), 2nd experiment; format: in vivo, athymic nude mice; settings: for IL-5: limit of detection 3.0; for IL-6: limit of detection 3.9; for IL-1β: limit of detection 4.1; for IL-10: limit of detection 24.6
Protocol: Cytokine levels in EDTA plasma from the mice in the 2nd experiment were measured at the UCSD Core Laboratory (San Diego, Calif.) using a multiplex assay kit for IL-1β, IL-2, IL-4, IL-5, IL-10, IL-12, IFN-γ, TNF-α and single ELISA kits for IL-6 and TGF-β1 by R&D Systems. […] For both the 1st and 2nd experiments, those measured cytokine values falling below the limits of detection were set to the higher assay limit for the purposes of the subsequent statistical analyses, and recorded as n.d. (not detectable) in Tables 1 through 3.

[3] = system: MDA-MB-231 human breast tumor xenographs; assay: Antitumor efficacy in nude mice with MDA-MB-231 xenographs, 1st experiment; format: in vivo, athymic nude (nu/nu) mice; settings: 21 mg/kg/day
Protocol: The aims of the 1st experiment were to determine a dose-response curve for the (1:4 mol:mol) calcium pterin suspension, to compare the antitumor activity of this suspension to pterin alone (pterin control), and to test the effect of CaPterin mega-dosing at 100 mg/kg/day. Antitumor efficacy was evaluated in nude mice with MDA-MB-231 human tumor xenographs by Perry Scientific (San Diego, Calif.). In the 1st experiment, twenty-three athymic nude (nu/nu) female mice, ages 3-4 weeks, were purchased from Harlan Sprague Dawley, Inc. (Indianapolis, Ind.). 5×10^6 MDA-MB-231 cancer cells were injected subcutaneously into the right flank of each mouse. When tumors reached 3-5 mm in size, twenty mice were divided into four treatment/control groups of five mice each. The four treatment groups were: (1:4 mol:mol) calcium pterin (7 mg/kg/day); pterin (21 mg/kg/day); (1:4 mol:mol) calcium pterin (21 mg/kg/day); and sterile water control. Two mice with outlying tumor sizes or non-tumor takes were excluded shortly after treatment began: one from the pterin group and one from the control group. […] Only one outlier persisted >4 days, for 14 days. Also excluded from the metabolic analysis in the 1st experiment was one mouse from each of the four experimental groups mega-dosed by oral gavage with 100 mg/kg/day CaPterin for tip to 31 days to test for toxicity. All the other mice in the 1st experiment persisted ≧60 days without complications.
The control mice in the 1st experiment were treated with sterile water while the control mice in the 2nd experiment were untreated to evaluate the effect of mouse handling and gavaging upon tumor growth. Daily dosing was for 7 days per week. Animals were restrained but not anesthetized for oral dosing. Tumors were measured twice weekly with calipers and body weights taken twice weekly on the day of tumor measurements. Blood was collected from all animals via cardiac puncture at termination (after 70 to 98 days of treatment) and processed to EDTA plasma for analysis. Tumor size measurements for the control group in the 2nd experiment on days 4 and 7 were missed due to a technical oversight.
The MDA-MB-231 human breast tumor cell lines were supplied by SRI International (Menlo Park, Calif.) and propagated using standard in vitro cell expansion methods. Briefly, cells were grown in L-15 media from Gibco (Cat. No. 11415-064) supplemented with 2 mM L-Glutamine and 10% Fetal Bovine Serum (FBS). The cells were cultured in an incubator with 5% CO2, 37.5° C., and 80% humidity. Cells were harvested with 0.25% (w/v) Trypsin-0.03% (w/v) EDTA solution. Cells were prepared for injection by standard methods to appropriate concentrations. Animals were temporarily restrained but not anesthetized for the inoculation of the tumor cells. Animals were subcutaneously injected with the tumor cells in a 100-200 μl volume.
Each animal was individually tracked for tumor growth by external caliper measurements of protruding tumor. Primary tumor sizes were measured using calipers and an approximate tumor volume calculated using the formula 1/2 (a×b^2), where b was the smaller of two perpendicular diameters.
For each group, the mean and standard error of the mean (SEM) of the ratio V/Vo, Relative Tumor Volume (RTV), were plotted as a function of treatment time after inoculation. V0 was the tumor volume at Day 0, when treatment began.

[4] = system: plasma cytokines; assay: Plasma cytokine levels by ELISA (LINCOplex), 1st experiment; format: in vivo, athymic nude (nu/nu) mice; settings: Table 4, 21 mg/kg/d
Protocol: Cytokine levels in EDTA plasma from the mice in the 1st experiment were determined by ELISA assay at Alta Analytical Laboratories (San Diego, Calif.) using a LINCOplex Kit (Linco Research). Tryptophan (Trp) and kynurenine (Kyn) concentrations were measured from EDTA plasma samples by high pressure liquid chromatography (HPLC) using 3-nitro-L-tyrosine as the internal standard (Widner et al., 1997). To estimate IDO activity, the kynurenine to tryptophan ratio (Kyn/Trp) was calculated and expressed as μmol kynurenine/mmol tryptophan (Wirleitner, 2003). The values from five mice in the 1st experiment are not included in the summary statistics given in Table 1 for the following reasons. One mouse from each of the four treatment groups was used to test the effects of mega dosing, i.e., with (1:4 mol:mol) calcium pterin at 100 mg/kg/day after Day 60 of treatment, and are excluded. Also excluded was one mouse from the (1:4 mol:mol) calcium pterin (7 mg/kg/day) group which expired suddenly a few days before blood was collected. Cytokine measurements <3.2 pg/ml are reported as n.d. (not detectable) because the standard curves used in the ELISA assays were not calibrated below that level.
Cytokine levels in EDTA plasma from the mice in the 1st experiment were determined by ELISA assay at Alta Analytical Laboratories (San Diego, Calif.) using a LINCOplex Kit (Linco Research).
Cytokine levels in EDTA plasma from the mice in the 2nd experiment were measured at the UCSD Core Laboratory (San Diego, Calif.) using a multiplex assay kit for IL-1β, IL-2, IL-4, IL-5, IL-10, IL-12, IFN-γ, TNF-α and single ELISA kits for IL-6 and TGF-β1 by R&D Systems. EDTA plasma samples from two of the three ungavaged controls were lost due to handling error. For both the 1st and 2nd experiments, those measured cytokine values falling below the limits of detection were set to the higher assay limit for the purposes of the subsequent statistical analyses, and recorded as n.d. (not detectable) in Tables 1 through 3.

[5] = system: MDA-MB-231 xenograph tumors; assay: Combined analysis of DCP + control mice: Day 42,43 relative tumor volume and DCP/APCP; format: in vivo, nude mice; settings: 25 mg/(kg day); Day 42,43 relative tumor volume; combined data
Protocol: Standard ANOVA models for group effects, curve fitting, and stepwise regression analyses were carried out using SPSS Graduate Pack 15.0 for Windows (2006), with p<0.05 used to determine significance.
Table 7 gives the plasma cytokine and relative tumor volume Spearman rank order correlations for the 12 DCP+ control mice (Control [n=3; from 1st experiment]; 23 mg/(kg d) DCP [n=5; from 2nd experiment]; and 69 mg/(kg d) DCP [n=4; from 2nd experiment]).
To further determine significant causal and correlational linkages among DCP dosage, plasma cytokine changes, and relative tumor volume, the following curve fitting analyses were carried out with the 12 DCP+ control mice. First, plotting DCP versus Day 42,43 Relative Tumor Volume yielded a significant quadratic relationship (FIG. 11). Second, curve fitting each cytokine versus Day 42,43 Relative Tumor Volume found no significant linear relationship and only one significant quadratic relationship, i.e., with IL-12 (p=0.004; FIG. 12). Third, plotting DCP versus IL-12 yielded a weakly significant quadratic relationship (p=0.048; FIG. 13).
Substantially more significant analogous plots were generated by first carrying out the Table 8 stepwise regression analysis which derived the DCP antitumor plasma cytokine pattern (DCP/APCP), shown to be a more significant cytokine composite measure than IL-12 taken alone. The Table 8 stepwise regression analysis of the cytokine data from the 12 DCP+ control mice allowed for the calculation of DCP/APCP scores for each mouse. These DCP/APCP scores are plotted versus DCP dosage in […], which illustrates the significant quadratic dose-response relationships of DCP versus the derived plasma DCP/APCP composite measure. From this figure the estimated optimum dosage of DCP for maximum tumor growth inhibition is 42 mg/(kg day), while the estimated optimum dosage for maximum DCP/APCP induction is 44 mg/(kg day).

[6] = 2nd experiment, CaCl2 group, 4.2 mg/kg/day
[7] = 2nd experiment, CaCl2 group, 4.2 mg/kg/day, limit of detection 3.2
[8] = 2nd experiment, 25 mg/kg/d, limit of detection 3.2

Question: `O.O.[Ca+2].[Cl-].[Cl-]` [CaCl2•2H2O, calcium chloride dihydrate, reference compound] was tested. Which “MDA-MB-231 xenograph growth inhibition” value [1] did it give?
Answer: significantly inhibit

Question: And the “plasma IL-12 versus control (FIG. 10)” value ([2]; 4.2 mg/(kg day))?
Answer: significantly elevated

Question: What about the IL-5 [2, 6] of the same molecule?
Answer: 10.3 ± 2.4 pg/mL

Question: What about the IFN-γ [2, 7] of the same molecule?
Answer: 9.7 ± 3.3 pg/mL

Question: And the IL-4 [2, 7]?
Answer: 3.6 ± .3 pg/mL

Question: What about the IL-12 [2, 7] of the same molecule?
Answer: 904.9 ± 156.9 pg/mL

Question: What about the IL-6 [2, 6] of the same molecule?
Answer: 44.4 ± 15.4 pg/mL

Question: And the IL-1β [2, 6]?
Answer: 6.4 ± .9 pg/mL

Question: And the IL-2 ([2]; 2nd experiment, CaCl2 group, 4.2 mg/kg/day, limit of detection 12.6)?
Answer: 12.7 ± .13 pg/mL

Question: And the IL-10 [2, 6]?
Answer: 26.5 ± 1.9 pg/mL

Question: And the TGF-β1 ([2]; 2nd experiment, CaCl2 group, 4.2 mg/kg/day, limit of detection 31.2)?
Answer: 74.3 ± 35.0 pg/mL

Question: Which “antitumor activity (tumor growth vs control)” value [3] does the source give for `Nc1nc2nccnc2c(=O)[nH]1` [Pterin, 2-amino-4(3H)-pteridinone] here?
Answer: no antitumor activity

Question: And the IL-12 ([4]; limit of detection 3.2)?
Answer: 48.5 ± 45.3 pg/mL

Question: What about the TNF-α ([4]; limit of detection 3.2) of the same molecule?
Answer: 9.0 ± 3.7 pg/mL

Question: And the IL-1β ([4]; limit of detection 4.1)?
Answer: 64.6 ± 60.4 pg/mL

Question: And the IL-6 ([4]; plasma at sacrifice, limit of detection 3.9)?
Answer: 87.4 ± 11.0 pg/mL

Question: With (1:2 mol:mol) calcium pterin as the molecule, how does the “tumor growth inhibition relative to controls (FIG. 9)” value [5] read?
Answer: significant tumor growth inhibition

Question: What about the “MDA-MB-231 xenograph growth inhibition” value [1] of the same molecule?
Answer: significantly inhibit

Question: What about the IL-5 ([2]; 2nd experiment, 25 mg/kg/d) of the same molecule?
Answer: 4.4 ± .9 pg/mL

Question: And the IFN-γ [2, 8]?
Answer: 16.1 ± 12.9 pg/mL

Question: What about the IL-12 [2, 8] of the same molecule?
Answer: 315.2 ± 71.0 pg/mL

Question: And the IL-6 ([2]; 2nd experiment, 25 mg/kg/d)?
Answer: 31.6 ± 9.2 pg/mL

Question: What about the IL-1β ([2]; 2nd experiment, 25 mg/kg/d) of the same molecule?
Answer: 4.9 ± .5 pg/mL

Question: What about the IL-10 ([2]; 2nd experiment, 25 mg/kg/d) of the same molecule?
Answer: 30.2 ± 5.6 pg/mL

Question: What about the “increases in plasma IL-12 (FIG. 10)” value ([2]; at the dosages tested) of the same molecule?
Answer: lower, non-significant increases
